Legend:
YT (IL-2 2.5 ng/mL) [1] = experiment: drug sensitivity score (DSS) (DSS units); higher = more sensitive; extreme values may be limits of the assay; settings: 72 h
[2] = tested on: normal primary NK cells, pool 1 (3 donors) (IL-2 2.5 ng/mL); experiment: as above; settings: 72 h
DERL-7 (IL-2 2.5 ng/mL) [3] = experiment: as above; settings: 72 h
[4] = tested on: normal primary NK cells, pool 3 (3 donors) (IL-2 2.5 ng/mL); experiment: as above; settings: 72 h
IMC-1 (IL-2 20 ng/mL) [5] = experiment: as above; settings: 72 h
[6] = tested on: normal primary NK cells, pool 2 (3 donors) (IL-2 2.5 ng/mL); experiment: as above; settings: 72 h
KAI3 (IL-2 2.5 ng/mL) [7] = experiment: as above; settings: 72 h
NK-92 (IL-2 2.5 ng/mL) [8] = experiment: as above; settings: 72 h
NKL (IL-2 2.5 ng/mL) [9] = experiment: as above; settings: 72 h
[10] = tested on: normal primary NK cells, pool 1 (3 donors), resting (IL-2 0 ng/mL); experiment: as above; settings: 72 h
SNK-6 (IL-2 2.5 ng/mL) [11] = experiment: as above; settings: 72 h
KHYG-1 (IL-2 2.5 ng/mL) [12] = experiment: as above; settings: 72 h
NK-YS (IL-2 2.5 ng/mL) [13] = experiment: as above; settings: 72 h
YT (IL-2 2.5 ng/mL) [14] = experiment: percent inhibition of viability; higher = more inhibition; settings: 72 h
[15] = tested on: normal primary NK cells, pool 1 (3 donors) (IL-2 2.5 ng/mL); experiment: as above; settings: 72 h
DERL-7 (IL-2 2.5 ng/mL) [16] = experiment: as above; settings: 72 h
[17] = tested on: normal primary NK cells, pool 3 (3 donors) (IL-2 2.5 ng/mL); experiment: as above; settings: 72 h
IMC-1 (IL-2 20 ng/mL) [18] = experiment: as above; settings: 72 h
[19] = tested on: normal primary NK cells, pool 2 (3 donors) (IL-2 2.5 ng/mL); experiment: as above; settings: 72 h
KAI3 (IL-2 2.5 ng/mL) [20] = experiment: as above; settings: 72 h
NK-92 (IL-2 2.5 ng/mL) [21] = experiment: as above; settings: 72 h
NKL (IL-2 2.5 ng/mL) [22] = experiment: as above; settings: 72 h
[23] = tested on: normal primary NK cells, pool 1 (3 donors), resting (IL-2 0 ng/mL); experiment: as above; settings: 72 h
SNK-6 (IL-2 2.5 ng/mL) [24] = experiment: as above; settings: 72 h
KHYG-1 (IL-2 2.5 ng/mL) [25] = experiment: as above; settings: 72 h
NK-YS (IL-2 2.5 ng/mL) [26] = experiment: as above; settings: 72 h
[27] = tested on: normal NK cells expanded with K562-aAPC; experiment: as above; settings: 72 h, IL-2 2.5 ng/mL
Experimental: (§1)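 Drug sensitivity and resistance testing on K562-aAPC-expanded normal NK cells: 5 concentrations (10-fold steps over a 10,000-fold range), 72 h at 37 °C, viability by CellTiter-Glo normalised to DMSO and benzethonium chloride controls; DSS from the fitted curve.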

[28] = tested on: normal NK cells expanded with K562-aAPC; experiment: drug sensitivity score (DSS) (DSS units); higher = more sensitive; extreme values may be limits of the assay; settings: 72 h; IL-2 2.5 ng/mL
Experimental: as §1

Cn1c(CCCC(=O)O)nc2cc(N(CCCl)CCCl)ccc21 [Bendamustine] (max concentration tested 10000 nM)
Settings | drug sensitivity score
DERL-7 (IL-2 2.5 ng/mL) [3] | 0
IMC-1 (IL-2 20 ng/mL) [5] | 1.24
KAI3 (IL-2 2.5 ng/mL) [7] | 1.09
KHYG-1 (IL-2 2.5 ng/mL) [12] | 0.29
NK-92 (IL-2 2.5 ng/mL) [8] | 0.59
NK-YS (IL-2 2.5 ng/mL) [13] | 4.15
NKL (IL-2 2.5 ng/mL) [9] | 8.66
SNK-6 (IL-2 2.5 ng/mL) [11] | 5.85
YT (IL-2 2.5 ng/mL) [1] | 0
[2] | 2.59
[4] | 3.81
[6] | 3.11
[10] | 4.14
[28] | 4.02

percent inhibition of viability [%]
Settings | 1 nM | 10 nM | 100 nM | 1000 nM | 10000 nM
DERL-7 (IL-2 2.5 ng/mL) [16] | 2.35 | -0.75 | -0.87 | -0.14 | 8.22
IMC-1 (IL-2 20 ng/mL) [18] | -5.16 | -3.14 | 0.53 | 1.92 | 25.3
KAI3 (IL-2 2.5 ng/mL) [20] | -0.41 | 1.91 | 1.35 | -4.7 | 30.8
KHYG-1 (IL-2 2.5 ng/mL) [25] | -5.91 | 1.42 | 10.1 | 2.21 | 17.1
NK-92 (IL-2 2.5 ng/mL) [21] | -10.3 | -2.08 | 7.9 | -10.7 | 24.9
NK-YS (IL-2 2.5 ng/mL) [26] | -10.9 | -2.18 | 8.61 | 4.45 | 63.6
NKL (IL-2 2.5 ng/mL) [22] | -5.33 | -10.8 | 5.76 | 27.8 | 88.6
SNK-6 (IL-2 2.5 ng/mL) [24] | -1.78 | -2.24 | 14.2 | 17.1 | 67
YT (IL-2 2.5 ng/mL) [14] | -6.57 | -3.19 | 7.12 | -0.08 | 0
[15] | -9.6 | -0.97 | -3.62 | -12.8 | 60.6
[17] | -2.58 | 1.8 | 5.19 | 5.5 | 54.3
[19] | -6.1 | -4.8 | 1.7 | 1.54 | 54.5
[23] | -1.75 | 6.06 | -6.12 | -12.6 | 88.2
[27] | 3.13 | 1.48 | -1.08 | 12.2 | 42.8

CC/C(=C(\c1ccccc1)c1ccc(OCCN(C)C)cc1)c1ccccc1 [Tamoxifen] (max concentration tested 10000 nM)
Settings | drug sensitivity score
DERL-7 (IL-2 2.5 ng/mL) [3] | 5.15
IMC-1 (IL-2 20 ng/mL) [5] | 0.37
KAI3 (IL-2 2.5 ng/mL) [7] | 6.93
KHYG-1 (IL-2 2.5 ng/mL) [12] | 4.33
NK-92 (IL-2 2.5 ng/mL) [8] | 4.46
NK-YS (IL-2 2.5 ng/mL) [13] | 1.92
NKL (IL-2 2.5 ng/mL) [9] | 7.22
SNK-6 (IL-2 2.5 ng/mL) [11] | 2.32
YT (IL-2 2.5 ng/mL) [1] | 3.65
[2] | 7.04
[4] | 1.21
[6] | 4.53
[10] | 8.03
[28] | 2.77

percent inhibition of viability [%]
Settings | 1 nM | 10 nM | 100 nM | 1000 nM | 10000 nM
DERL-7 (IL-2 2.5 ng/mL) [16] | 1.51 | 5.51 | 6.94 | 12.4 | 58.1
IMC-1 (IL-2 20 ng/mL) [18] | 2.26 | 1.26 | 1.8 | 5.99 | 14.7
KAI3 (IL-2 2.5 ng/mL) [20] | -0.42 | -4.09 | 3.87 | 8.65 | 100
KHYG-1 (IL-2 2.5 ng/mL) [25] | -5.57 | -6.4 | 1.61 | 13.7 | 44.6
NK-92 (IL-2 2.5 ng/mL) [21] | -11.7 | -1.59 | -5.3 | 2.31 | 75.2
NK-YS (IL-2 2.5 ng/mL) [26] | -7.45 | -5.92 | -3.79 | 2.63 | 33.2
NKL (IL-2 2.5 ng/mL) [22] | -6.42 | -9.93 | 0.08 | 21.2 | 73.4
SNK-6 (IL-2 2.5 ng/mL) [24] | -6.58 | -17.5 | -11.6 | -6.09 | 51.8
YT (IL-2 2.5 ng/mL) [14] | -0.53 | -2.4 | 0.91 | 3.43 | 58.4
[15] | 1.45 | 8.11 | 7.67 | 12.3 | 89.6
[17] | -1.03 | 0.09 | 5.67 | -1.54 | 30.3
[19] | -3.62 | 2.15 | -3.66 | 4.91 | 68.8
[23] | 2.3 | 22 | 15.1 | 20.6 | 90.1
[27] | -7.94 | -6.09 | -3.11 | 5.82 | 37.2

CC1(C)NC(=O)N(c2ccc([N+](=O)[O-])c(C(F)(F)F)c2)C1=O [Nilutamide] (max concentration tested 10000 nM)
Settings | drug sensitivity score
DERL-7 (IL-2 2.5 ng/mL) [3] | 0
IMC-1 (IL-2 20 ng/mL) [5] | 2.47
KAI3 (IL-2 2.5 ng/mL) [7] | 1.74
KHYG-1 (IL-2 2.5 ng/mL) [12] | 0.08
NK-92 (IL-2 2.5 ng/mL) [8] | 0.81
NK-YS (IL-2 2.5 ng/mL) [13] | 0.84
NKL (IL-2 2.5 ng/mL) [9] | 4.46
SNK-6 (IL-2 2.5 ng/mL) [11] | 0
YT (IL-2 2.5 ng/mL) [1] | 0.93
[2] | 0
[4] | 0
[6] | 0
[10] | 1.43
[28] | 0.04

percent inhibition of viability [%]
Settings | 1 nM | 10 nM | 100 nM | 1000 nM | 10000 nM
DERL-7 (IL-2 2.5 ng/mL) [16] | -0.2 | -1.34 | 3.47 | -0.03 | 1.75
IMC-1 (IL-2 20 ng/mL) [18] | 0 | -0.12 | 2.93 | 3 | 40.4
KAI3 (IL-2 2.5 ng/mL) [20] | 2 | 1.75 | 11.7 | 3.52 | 28.1
KHYG-1 (IL-2 2.5 ng/mL) [25] | 24.8 | -7.14 | -0.73 | -1.75 | 15.3
NK-92 (IL-2 2.5 ng/mL) [21] | -0.95 | -6.88 | 4.02 | -1.88 | 24.8
NK-YS (IL-2 2.5 ng/mL) [26] | -5.09 | -3.33 | -3.78 | 3.59 | 17.6
NKL (IL-2 2.5 ng/mL) [22] | 10.6 | 5.58 | 15.2 | 17.2 | 31.6
SNK-6 (IL-2 2.5 ng/mL) [24] | 33.2 | -24.8 | -17.7 | -22.5 | -4.35
YT (IL-2 2.5 ng/mL) [14] | 0.36 | -6.16 | 5.94 | -0.37 | 25
[15] | -9.72 | 5.06 | -2.38 | 6.35 | 1.66
[17] | 1.57 | 6.88 | 3.88 | -4.89 | -2.84
[19] | -2.69 | 6.11 | 0.2 | 1.25 | 3.42
[23] | -1.3 | 10.6 | 10.3 | 9.07 | 18.9
[27] | -10 | -7.03 | -6.98 | -0.84 | 12.4

Reference: the supplement of paper PMC5908809
